Experimental data published in US10865222B2, “Neisseria gonorrhoeae therapeutic based on CMP-nonulosonate sugars” (priority 2014, dated 2020).
“Also recorded” adds a separate entry of the source.

How the values were obtained:
[1] = tested on: Ng 398078 (expresses P^K-like structure on HepI); experiment: Complement resistance of Ng 398078 (serum bactericidal assay); assay type: cell-based, N. gonorrhoeae; conditions: 10% normal human serum
Procedure: CMP-Leg5Ac7Ac and CMP-Neu5Ac9Az also counteracted CMP-Neu5Ac-mediated serum resistance of a P^K LOS expressing isolate called 398078 (Table 4).
Serum bactericidal assays were performed as described previously (11). Bacteria harvested from an overnight culture on chocolate agar plates were grown in liquid media containing the specified concentration of CMP-nonulosonate as specified for each experiment. Approximately 2000 CFU of F62 ΔIgtD were incubated with NHS (concentration specified for each experiment). The final reaction volumes were maintained at 150 μl. Aliquots of 25 μl of reaction mixtures were plated onto chocolate agar in duplicate at the beginning of the assay (t0) and again after incubation at 37° C. for 30 min (t30). Survival was calculated as the number of viable colonies at t30 relative to t0.

[2] = molecular target: T1, gonococcal LOS sialyltransferase (Lst) (Neisseria gonorrhoeae, UniProt P72074); assay type: cell-based, N. gonorrhoeae; conditions: CMP salt 30 μM (20 μg/ml), 2 h at 37° C.
T1 construct: served as substrates for gonococcal Lst in the context of live bacteria; endogenous in cells; host or cells: N. gonorrhoeae F62 ΔlgtD (live bacteria)
Procedure: FIG. 1. Substrate specificity of gonococcal LOS sialyltransferase (Lst) N. gonorrhoeae strain F62 ΔIgtD was grown in standard gonococcal liquid media alone (‘No sialic acid’) or in media supplemented with CMP salts of the indicated sialic acid or nonulosonic acid, each at a concentration of 20 μg/ml (˜30 μM), for 2 h at 37° C. Bacteria were washed, pellets treated with protease K, lysed in 4×LDS buffer and lysates were separated on 12% Bis-Tris gels using MES running buffer. LOS was transferred to a PVDF membrane and probed with mAb 3F11 that recognizes the lacto-N-neotetraose only in the non-sialylated state; the addition of a sialic acid or nonulosonate residue abrogates mAb 3F11 binding (upper panel). LOS was also visualized by silver staining (middle panel). Sialylation or nonulosonate (NulO) modification was also quantified using whole cell ELISA with mAb 3F11 (lower graph).
To define the substrate specificity of gonococcal LOS sialyltransferase, N. gonorrhoeae F62 ΔIgtD was grown in media alone, or media that contained the CMP-activated derivatives of 7 nonulosonates (listed in Table 1), each at a concentration of 30 μM (20 μg/ml). Following incubation for 2 h at 37° C., bacteria were washed, lysed with protease K/LDS sample buffer and separated on 12% Bis-tris gels. Blots were probed with mAb 3F11, which binds to the terminal lactosamine residue of lacto-N-neotetraose (LNT); any extension beyond the terminal Gal (in this instance with a nonose) would abrogate 3F11 binding. […] Whole cell ELISA with mAb 3F11 confirmed results of western blotting (FIG. 1, lower graph).
Bacteria (F62 ΔIgtD) grown overnight on chocolate agar plates were suspended in gonococcal liquid media supplemented with IsoVitaleX (11) that contained specified concentrations of the CMP-nonulosonate. Bacteria were then incubated at 37° C. for the period specified in each experiment.
Gonococcal lysates treated with protease K (100 μg/ml) and NuPAGE® LDS Sample Buffer (4×) (Invitrogen) were separated on NuPAGE® 12% Bis-Tris (Invitrogen) gels using Novex® MES running buffer (Invitrogen) followed by sliver staining with the Bio-Rad Silver Stain Kit, or were transferred to an Immobilon PVDF membrane (Millipore). Membranes were blocked with PBS/1% milk and probed with tissue culture supernatants that contained mAb 3F11. mAb 3F11-reactive LOS bands were disclosed with anti-mouse IgM conjugated to alkaline phosphatase followed by the addition of BCIP®/NBT-Purple Liquid Substrate (Sigma).

[3] = CMP-NulO 20 μg/ml added to media 15 min after CMP-Neu5Ac 20 μg/ml

T1 sequence (P72074 whole entry): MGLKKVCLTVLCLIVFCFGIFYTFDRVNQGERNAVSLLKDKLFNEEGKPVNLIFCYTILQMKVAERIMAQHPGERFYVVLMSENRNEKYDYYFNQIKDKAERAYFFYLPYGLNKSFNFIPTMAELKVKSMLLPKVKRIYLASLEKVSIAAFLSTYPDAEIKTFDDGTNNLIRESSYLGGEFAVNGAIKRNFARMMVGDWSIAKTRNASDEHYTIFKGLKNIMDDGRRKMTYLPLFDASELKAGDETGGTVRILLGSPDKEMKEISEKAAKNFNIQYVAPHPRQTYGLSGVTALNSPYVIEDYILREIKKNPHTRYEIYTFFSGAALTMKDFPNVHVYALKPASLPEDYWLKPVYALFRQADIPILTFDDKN

Molecule	% survival [mean (range)] [1, 3]	% survival [mean (range)] ([1]; CMP-NulO alone at 20 μg/ml)	mAb 3F11 binding / incorporation of nonulosonate onto LNT LOS (use as Lst substrate) [2]
5,7-diacetamido-3,5,7,9-tetradeoxy-D-glycero-D-galacto-nonulosonic acid [CMP-Leg5Ac7Ac]	0 (0) %	0 (0) %	decreased binding of mAb 3F11; also recorded: least incorporated
CC(=O)N[C@H]1[C@H]([C@H](O)[C@H](O)COC(C)=O)OC(OP(=O)(O)OC[C@H]2O[C@@H](n3ccc(N)nc3=O)[C@H](O)[C@@H]2O)(C(=O)O)C[C@@H]1O (stereo partly drawn) [CMP-Neu5Ac9Ac, CMP-5-acetamido-9-O-acetyl-3,5-dideoxy-D-glycero-D-galacto-nonulosonic acid]			decreased binding of mAb 3F11
CC(=O)N[C@H]1[C@H]([C@H](O)[C@H](O)CN=[N+]=[N-])OC(OP(=O)(O)OC[C@H]2O[C@@H](n3ccc(N)nc3=O)[C@H](O)[C@@H]2O)(C(=O)O)C[C@@H]1O (stereo partly drawn) [CMP-Neu5Ac9Az, CMP-5-acetamido-9-azido-3,5,9-trideoxy-D-glycero-D-galacto-nonulosonic acid]	7.5 (5.2) %	7.1 (2.3) %	decreased binding of mAb 3F11
CC(=O)NC1C(O)CC(OP(=O)(O)OCC2OC(n3ccc(N)nc3=O)C(O)C2O)(C(=O)O)OC1C(O)C(O)CO [CMP-Neu5Ac, CMP-5-acetamido-3,5-dideoxy-D-glycero-D-galacto-nonulosonic acid, reference compound]		57.5 (1.6) %	decreased binding of mAb 3F11
COC(CO)C(O)C1OC(OP(=O)(O)OCC2OC(n3ccc(N)nc3=O)C(O)C2O)(C(=O)O)CC(O)C1NC(=O)CO [CMP-Neu5Gc8Me, CMP-5-hydroxyacetamido-8-O-methyl-3,5-dideoxy-D-glycero-D-galacto-nonulosonic acid]			decreased binding of mAb 3F11
